Key:
[1] = target: JAK2/JAK2 homdimeric complex (Homo sapiens (Human), UniProt O60674); assay: GM-CSF Induced pSTAT5 in Human PBMC; format: cell-based; conditions: GM-CSF 5 ng/mL for 20 minutes, pSTAT5 by MSD, read-out: PBMC_GMCSF_pSTAT5 IC50
JAK2 kinase domain (JH1) = JAK2 kinase domain (JH1) (Homo sapiens (Human), UniProt O60674); assay: JAK2 Radioactive Kinase Assay; format: biochemical; conditions: 10 μM compound, 10 μM ATP; for inhibition at 10 µM: read-out: JAK2 JH1% Inhibition @ 10 μM
Procedure, shortened: (§1)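 Single-point screen: 10 μM test compound, radioactive kinase read-out, percent inhibition reported for each kinase domain.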

[2] = target: human TYK2 (JH2domain-pseudokinase) (Homo sapiens (Human), UniProt P29597); assay: TYK2 JH2 Domain Binding Assay (KINOMEscan)
Sequence of human TYK2 (JH2domain-pseudokinase) (P29597 556-888): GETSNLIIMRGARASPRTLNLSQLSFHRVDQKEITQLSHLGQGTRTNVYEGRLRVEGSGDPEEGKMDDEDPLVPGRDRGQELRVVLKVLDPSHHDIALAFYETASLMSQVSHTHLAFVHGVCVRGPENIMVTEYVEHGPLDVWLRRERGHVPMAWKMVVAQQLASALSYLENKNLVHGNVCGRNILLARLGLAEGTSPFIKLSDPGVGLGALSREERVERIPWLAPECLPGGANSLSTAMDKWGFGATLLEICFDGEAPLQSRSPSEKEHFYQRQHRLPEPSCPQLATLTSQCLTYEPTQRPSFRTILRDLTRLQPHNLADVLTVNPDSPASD
Procedure, shortened: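 Kds, run in duplicate, came from Hill fits (slope fixed at −1) of an 11-point 3-fold dilution series starting at 30,000 nM. Bead-retained TYK2 JH2 (aa G556–D888)–NFkB DBD fusion, DNA-tagged and expressed in HEK293 cells, was read by qPCR after 1 h room-temperature binding in 0.9% DMSO.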

Tyk2 kinase domain (DH1) = Tyk2 kinase domain (DH1) (Homo sapiens (Human), UniProt P29597); assay: Tyk2 Radioactive Kinase Assay; format: biochemical; conditions: 10 μM compound, 10 μM ATP; for inhibition at 10 µM: read-out: Tyk2 JH1% Inhibition @ 10 μM
Sequence of Tyk2 kinase domain (DH1) (P29597 897-1176): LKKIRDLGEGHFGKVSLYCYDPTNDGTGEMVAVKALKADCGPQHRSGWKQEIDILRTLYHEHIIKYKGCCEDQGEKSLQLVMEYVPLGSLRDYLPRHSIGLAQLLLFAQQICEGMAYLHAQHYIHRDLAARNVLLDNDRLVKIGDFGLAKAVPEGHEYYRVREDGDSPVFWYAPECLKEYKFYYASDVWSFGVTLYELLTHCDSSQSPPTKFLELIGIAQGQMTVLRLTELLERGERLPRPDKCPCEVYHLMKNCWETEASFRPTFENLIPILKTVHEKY
Procedure, shortened: as §1

Sequence of JAK2 kinase domain (JH1) (O60674 849-1124): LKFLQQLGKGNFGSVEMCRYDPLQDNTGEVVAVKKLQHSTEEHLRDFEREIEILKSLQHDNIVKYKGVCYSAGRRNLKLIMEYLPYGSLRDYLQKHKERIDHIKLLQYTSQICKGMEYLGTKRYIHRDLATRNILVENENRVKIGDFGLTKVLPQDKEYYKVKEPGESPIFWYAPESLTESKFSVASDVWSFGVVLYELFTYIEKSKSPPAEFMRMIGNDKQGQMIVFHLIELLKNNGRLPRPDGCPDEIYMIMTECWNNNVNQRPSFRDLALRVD
Sequence of JAK2/JAK2 homdimeric complex (O60674 whole entry, the tested form may be a part): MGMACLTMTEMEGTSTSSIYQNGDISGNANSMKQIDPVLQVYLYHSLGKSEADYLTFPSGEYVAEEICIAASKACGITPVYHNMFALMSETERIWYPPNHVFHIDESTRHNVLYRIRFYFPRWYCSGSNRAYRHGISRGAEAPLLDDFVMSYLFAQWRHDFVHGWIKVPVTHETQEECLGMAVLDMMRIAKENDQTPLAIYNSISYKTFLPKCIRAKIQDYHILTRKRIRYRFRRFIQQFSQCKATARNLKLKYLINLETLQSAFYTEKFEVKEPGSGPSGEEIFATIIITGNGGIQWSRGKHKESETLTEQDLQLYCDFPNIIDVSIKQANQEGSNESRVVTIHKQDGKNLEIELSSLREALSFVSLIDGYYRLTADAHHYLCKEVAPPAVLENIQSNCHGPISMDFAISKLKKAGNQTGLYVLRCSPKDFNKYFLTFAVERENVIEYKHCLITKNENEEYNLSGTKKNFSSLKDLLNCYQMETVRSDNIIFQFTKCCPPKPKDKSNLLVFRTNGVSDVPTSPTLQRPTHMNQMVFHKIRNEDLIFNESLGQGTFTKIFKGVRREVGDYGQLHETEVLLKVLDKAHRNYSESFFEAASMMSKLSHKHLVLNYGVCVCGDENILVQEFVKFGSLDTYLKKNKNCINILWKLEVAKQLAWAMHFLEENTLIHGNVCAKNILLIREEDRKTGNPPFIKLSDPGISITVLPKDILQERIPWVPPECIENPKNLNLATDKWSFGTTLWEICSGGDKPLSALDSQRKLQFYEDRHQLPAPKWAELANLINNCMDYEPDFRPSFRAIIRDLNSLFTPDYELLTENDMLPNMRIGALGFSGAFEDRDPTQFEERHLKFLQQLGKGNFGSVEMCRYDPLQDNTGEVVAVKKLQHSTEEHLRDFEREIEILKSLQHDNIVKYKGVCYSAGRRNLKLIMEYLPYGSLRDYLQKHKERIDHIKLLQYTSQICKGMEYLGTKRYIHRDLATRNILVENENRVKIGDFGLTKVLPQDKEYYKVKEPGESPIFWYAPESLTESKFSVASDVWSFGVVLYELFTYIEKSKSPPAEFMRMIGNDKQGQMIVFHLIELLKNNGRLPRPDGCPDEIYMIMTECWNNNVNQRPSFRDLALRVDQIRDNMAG
Sequence of JAK2/JAK2 homdimeric complex (P32927 17-897 partner): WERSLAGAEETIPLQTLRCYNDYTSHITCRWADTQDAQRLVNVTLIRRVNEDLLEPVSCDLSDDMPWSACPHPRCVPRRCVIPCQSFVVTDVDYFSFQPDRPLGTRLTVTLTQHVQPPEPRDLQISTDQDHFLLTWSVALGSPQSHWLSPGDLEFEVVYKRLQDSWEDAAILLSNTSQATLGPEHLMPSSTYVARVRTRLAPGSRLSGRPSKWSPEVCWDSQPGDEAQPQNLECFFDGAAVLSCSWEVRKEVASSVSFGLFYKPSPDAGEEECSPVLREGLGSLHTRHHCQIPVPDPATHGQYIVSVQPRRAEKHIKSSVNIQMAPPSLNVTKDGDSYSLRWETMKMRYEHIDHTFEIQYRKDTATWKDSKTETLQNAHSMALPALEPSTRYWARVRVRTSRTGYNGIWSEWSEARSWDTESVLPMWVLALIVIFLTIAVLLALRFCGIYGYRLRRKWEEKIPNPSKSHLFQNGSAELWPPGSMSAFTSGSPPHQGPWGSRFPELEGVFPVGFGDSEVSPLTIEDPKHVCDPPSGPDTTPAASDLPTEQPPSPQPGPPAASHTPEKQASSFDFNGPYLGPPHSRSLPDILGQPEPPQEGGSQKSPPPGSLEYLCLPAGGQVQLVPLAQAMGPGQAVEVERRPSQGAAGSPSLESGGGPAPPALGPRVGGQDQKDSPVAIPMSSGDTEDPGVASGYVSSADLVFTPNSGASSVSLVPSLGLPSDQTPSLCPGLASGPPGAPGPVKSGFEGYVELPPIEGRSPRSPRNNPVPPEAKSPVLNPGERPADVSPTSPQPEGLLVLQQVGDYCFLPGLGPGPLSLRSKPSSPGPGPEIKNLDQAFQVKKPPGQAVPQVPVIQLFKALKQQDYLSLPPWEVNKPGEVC

IC50 [1] | inhibition at 10 µM (JAK2 kinase domain (JH1)) | Kd [2] | inhibition at 10 µM (Tyk2 kinase domain (DH1)) | Structure (SMILES) | JAK2 JH1% Inhibition @ 10 μM (JAK2 kinase domain (JH1)) | Tyk2 JH1% Inhibition @ 10 μM (Tyk2 kinase domain (DH1))
> 50000 nM |  |  |  | CNc1cc(Nc2cc(C)cc(C)c2)nc2c(C(=O)NC3CC3)cnn12 [I-1, N-cyclopropyl-5-((3,5-dimethylphenyl)amino)-7-(methylamino)pyrazolo[1,5-a]pyrimidine-3-carboxamide] |  | 
> 50000 nM |  |  |  | CNc1cc(Nc2cccnc2OC)nc2c(C(=O)NC3CC3)cnn12 [I-8] |  | 
> 2500 nM |  |  |  | CNc1cc(Nc2cccn(-c3ccc(F)cc3)c2=O)nc2c(C(=O)NC3CC3)cnn12 [I-107, N-cyclopropyl-5-((1-(4-fluorophenyl)-2-oo-1,2-dihydropyridin-3-yl)amino)-7-(methylamino)pyrazolo[1,5-a]pyrimidine-3-carboxamide] |  | 
> 50000 nM |  |  |  | CNc1cc(Nc2cccn(-c3ncccc3F)c2=O)nc2c(C(=O)NC3CC3)cnn12 [I-143] |  | 
> 12500 nM |  |  |  | [2H]C([2H])([2H])Oc1ncccc1Nc1cc(NC)n2ncc(C(=O)NC3CC3)c2n1 [I-175, N-cyclopropyl-5-((2-(methoxy-d3)pyridin-3-yl)amino)-7-(methylamino) pyrazolo[1,5-a]pyrimidine-3-carboxamide] |  | 
> 2500 nM |  |  |  | CNc1cc(Nc2cccn(-c3ccc(F)cn3)c2=O)nc2c(C(=O)N[C@@H]3CC[C@H]3OC)cnn12 [I-817] |  | 
> 50000 nM |  |  |  | CNc1cc(Nc2cccn(-c3cccnc3)c2=O)nc2c(C(=O)N[C@H]3CC[C@@H]3OC)cnn12 [I-864] |  | 
> 12500 nM |  |  |  | CNc1cc(Nc2cccn(-c3nc(C)co3)c2=O)nc2c(C(=O)N[C@H]3CC[C@@H]3OC)cnn12 [I-890] |  | 
> 50000 nM |  |  |  | CNc1cc(Nc2cccn(-c3cnc(C)o3)c2=O)nc2c(C(=O)N[C@@H]3CC[C@H]3OC)cnn12 [I-895] |  | 
> 50000 nM |  |  |  | CNc1cc(Nc2cccn(C(C)C)c2=O)nc2c(C(=O)N[C@@H]3CC[C@H]3OC)cnn12 [I-917] |  | 
> 2500 nM |  |  |  | CNc1cc(Nc2cccn(-c3ccc(F)cn3)c2=O)nc2c(C(=O)N[C@H]3CC[C@@H]3OC)cnn12 [I-926] |  | 
> 50000 nM |  |  |  | CNc1cc(Nc2cccn(-c3nc(C)co3)c2=O)nc2c(C(=O)N[C@H]3CC[C@@H]3OC)cnn12 [I-975] |  | 
> 50000 nM |  |  |  | CNc1cc(Nc2cccn(C(C)C)c2=O)nc2c(C(=O)N[C@H]3CC[C@@H]3OC)cnn12 [I-980] |  | 
> 50000 nM |  |  |  | CNc1cc(Nc2cccn(C3CCOCC3)c2=O)nc2c(C(=O)N[C@H]3CC[C@@H]3OC)cnn12 [I-1014] |  | 
> 50000 nM |  |  |  | CNc1cc(Nc2cccn([C@H]3CC[C@H](OC)CC3)c2=O)nc2c(C(=O)N[C@H]3CC[C@@H]3OC)cnn12 [I-1062] |  | 
 | < 50% | 0.2 to 1 nM | < 50% | CNc1cc(Nc2cccn(C(C)C)c2=O)nc2c(C(=O)N[C@@H]3CCC[C@@H](O)C3)cnn12 [I-1079] |  | 
 | < 50% | < 0.2 nM | < 50% | CNc1cc(-c2cn(C3CC3)c3ncccc23)nc2c(C(=O)N[C@H]3CC[C@H]3O)cnn12 [I-1080, 5-(1-cyclopropyl-1H-pyrrolo[2,3-b]pyridin-3-yl)-N-((1S,2R)-2-hydroxycyclobutyl)-7-(methylamino)pyrazolo[1,5-a]pyrimidine-3-carboxamide] |  | 
 | < 50% | 0.2 to 1 nM | < 50% | CNc1cc(-c2cn(C3CC3)c3ncccc23)nc2c(C(=O)N[C@@H]3CC[C@@H]3O)cnn12 [I-1081, 5-(1-cyclopropyl-1H-pyrrolo[2,3-b]pyridin-3-yl)-N-((1R,2S)-2-hydroxycyclobutyl)-7-(methylamino)pyrazolo[1,5-a]pyrimidine-3-carboxamide] |  | 
 | < 50% | 1 to 10 nM | < 50% | CNc1cc(Nc2cccn([C@@H]3CCC[C@H](OC)C3)c2=O)nc2c(C(=O)N[C@H]3CC[C@@H]3OC)cnn12 [I-1083] |  | 
 | < 50% | < 0.2 nM | < 50% | CNc1cc(Nc2cccn([C@@H]3CCC[C@@H](OC)C3)c2=O)nc2c(C(=O)NCC3(CO)CC3)cnn12 [I-1087] |  | 
 | < 50% | < 0.2 nM | < 50% | CNc1cc(Nc2cccn([C@@H]3C[C@H]3F)c2=O)nc2c(C(=O)N[C@H]3CC[C@H]3O)cnn12 [I-1089] |  | 
 | < 50% | < 0.2 nM | < 50% | CNc1cc(Nc2cccn([C@@H]3C[C@H]3F)c2=O)nc2c(C(=O)N[C@@H]3CC[C@H]3O)cnn12 [I-1091] |  | 
 | < 50% | 0.2 to 1 nM | < 50% | CNc1cc(Nc2cccn([C@H]3C[C@@H]3F)c2=O)nc2c(C(=O)N[C@@H]3CC[C@H]3O)cnn12 [I-1092] |  | 

IC50 [1] | inhibition at 10 µM (JAK2 kinase domain (JH1)) | Kd [2] | inhibition at 10 µM (Tyk2 kinase domain (DH1)) | Structure (SMILES) | JAK2 JH1% Inhibition @ 10 μM (JAK2 kinase domain (JH1)) | Tyk2 JH1% Inhibition @ 10 μM (Tyk2 kinase domain (DH1))
 | < 50% | 0.2 to 1 nM | < 50% | CNc1cc(Nc2cccn([C@@H]3CCC[C@@H]3O)c2=O)nc2c(C(=O)N[C@H]3CC[C@@H]3OC)cnn12 [I-1100] |  | 
 | < 50% | 1 to 10 nM | < 50% | CNc1cc(Nc2cccn([C@H]3CC[C@H]3O)c2=O)nc2c(C(=O)NC3CC3)cnn12 [I-1103] |  | 
 | < 50% | < 0.2 nM | < 50% | CNc1cc(Nc2cccn([C@@H]3CC[C@@H]3O)c2=O)nc2c(C(=O)NC3CC3)cnn12 [I-1104] |  | 
 | < 50% | 1 to 10 nM | < 50% | CNc1cc(Nc2cccn([C@H]3CC[C@](C)(OC)CC3)c2=O)nc2c(C(=O)N[C@@H]3CC[C@H]3OC)cnn12 [I-1106] |  | 
 | < 50% | < 0.2 nM | < 50% | CNc1cc(Nc2cccn([C@H]3CC[C@](C)(OC)CC3)c2=O)nc2c(C(=O)N[C@H]3CC[C@@H]3O)cnn12 [I-1108] |  | 
 | < 50% | < 0.2 nM | < 50% | CNc1cc(Nc2cccn([C@H]3CC[C@]4(CCCO4)CC3)c2=O)nc2c(C(=O)NC3CC3)cnn12 [I-1109] |  | 
 | < 50% | < 0.2 nM | < 50% | CNc1cc(Nc2cccn([C@@H]3CC[C@@H]3O)c2=O)nc2c(C(=O)N[C@@H]3C[C@@H]3F)cnn12 [I-1110] |  | 
 | < 50% | < 0.2 nM | < 50% | CNc1cc(-c2cn(C3CCOCC3)c3ncccc23)nc2c(C(=O)N[C@H]3CC[C@H]3O)cnn12 [I-1113] |  | 
 | < 50% | 0.2 to 1 nM | < 50% | CNc1cc(-c2cn(C3CCOCC3)c3ncccc23)nc2c(C(=O)N[C@@H]3CC[C@@H]3O)cnn12 [I-1114] |  | 
 | < 50% | 1 to 10 nM | < 50% | CNc1cc(Nc2cccc3ocnc23)nc2c(C(=O)N[C@H]3CC[C@@H]3OC)cnn12 [I-1115] |  | 
 | < 50% | < 0.2 nM | < 50% | CNc1cc(Nc2cccn(C3CCCCC3)c2=O)nc2c(C(=O)NC[C@@H](C)CO)cnn12 [I-1119] |  | 
 | < 50% | 0.2 to 1 nM | < 50% | CNc1cc(Nc2cccn(C3CCCCC3)c2=O)nc2c(C(=O)NC[C@H](C)CO)cnn12 [I-1120] |  | 
 | < 50% | 0.2 to 1 nM | < 50% | CNc1cc(Nc2cccn([C@@H]3C[C@H]3F)c2=O)nc2c(C(=O)NCC3(CO)CC3)cnn12 [I-1122, 5-((1-((1R,2R)-2-fluorocyclopropyl)-2-oxo-1,2-dihydropyridin-3-yl)amino)-N-((1-(hydroxymethyl)cyclopropyl)methyl)-7-(methylamino)pyrazolo[1,5-a]pyrimidine-3-carboxamide] |  | 
 | < 50% | < 0.2 nM | < 50% | CNc1cc(Nc2cccn([C@H]3CCC[C@@H](OC)C3)c2=O)nc2c(C(=O)N[C@@H]3CC[C@H]3O)cnn12 [I-1123] |  | 
 | < 50% | < 0.2 nM | < 50% | CNc1cc(Nc2cccn([C@H]3CCC[C@@H](OC)C3)c2=O)nc2c(C(=O)N[C@H]3CC[C@@H]3O)cnn12 [I-1124] |  | 
 | < 50% | > 10 nM | < 50% | CNc1cc(Nc2cccn([C@H]3CCC[C@@H](OC)C3)c2=O)nc2c(C(=O)N[C@H]3CC[C@@H]3OC)cnn12 [I-1125] |  | 
 | < 50% | < 0.2 nM | < 50% | CNc1cc(Nc2cccn([C@H]3CCC[C@@H](OC)C3)c2=O)nc2c(C(=O)N[C@@H]3CC[C@H]3OC)cnn12 [I-1126] |  | 
 |  | > 10 nM |  | CNc1cc(Nc2cccn([C@@H]3CCCC[C@@H]3OC)c2=O)nc2c(C(=O)N[C@H]3CC[C@@H]3OC)cnn12 [I-1127] | A (percent inhibition at 10 μM lower than 50) | A (percent inhibition at 10 μM lower than 50)
 | < 50% | 1 to 10 nM | < 50% | CNc1cc(Nc2cccn([C@@H]3CCCC[C@@H]3OC)c2=O)nc2c(C(=O)N[C@@H]3CC[C@H]3OC)cnn12 [I-1128] |  | 
 |  | 1 to 10 nM |  | CNc1cc(Nc2cccn([C@@H]3CCC[C@@H](O)C3)c2=O)nc2c(C(=O)N[C@H]3CC[C@@H]3OC)cnn12 [I-1129] | A (percent inhibition at 10 μM lower than 50) | A (percent inhibition at 10 μM lower than 50)
 | < 50% | < 0.2 nM | < 50% | CNc1cc(Nc2cccn([C@@H]3CCC[C@@H](O)C3)c2=O)nc2c(C(=O)N[C@@H]3CC[C@H]3OC)cnn12 [I-1130] |  | 
> 50000 nM |  |  |  | CNc1cc(Nc2cccn([C@H]3CC[C@H](OC)CC3)c2=O)nc2c(C(=O)N[C@@H]3CC[C@H]3OC)cnn12 [I-1378] |  | 
> 50000 nM |  |  |  | CNc1cc(Nc2cccn(-c3ncco3)c2=O)nc2c(C(=O)N[C@@H]3CC[C@H]3OC)cnn12 [I-1398] |  | 

— patent US10508120B2, “TYK2 inhibitors and uses thereof” (Nimbus Lakshmi, Inc., priority 2017, dated 2019)
